Assay results published in patent publication US20230365589A1, “NOVEL AMINE DERIVATIVES” (Sumitomo Pharma Co., Ltd., priority 2020, published 2023).
Where two headings read alike, the source gives them in different places.

How the values were obtained:
Format in all cases: biochemical
[1] = molecular target: T1, DYRK1A (Homo sapiens, UniProt Q13627); test: Inhibition test on activity of DYRK family, mobility shift assay (MSA): DYRK1A
T1 construct: purchased Carna Biosciences, Inc. 04-130
Procedure, shortened: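 IC50 derived by regressing inhibition rate on log compound concentration, using P/(P+S) peak ratios from electrophoretic separation. DYRK1A enzyme solution 0.2 ng/μL, substrate mix with 4 μM FITC-DYRKtide and 100 μM ATP, pH 7.5 HEPES; reaction run 1 h at room temperature.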

[2] = molecular target: T2, DYRK1B (Homo sapiens, UniProt Q9Y463); test: Inhibition test on activity of DYRK family, mobility shift assay (MSA): DYRK1B
T2 construct: purchased Carna Biosciences, Inc. 04-131
T2 sequence (Q9Y463 whole entry): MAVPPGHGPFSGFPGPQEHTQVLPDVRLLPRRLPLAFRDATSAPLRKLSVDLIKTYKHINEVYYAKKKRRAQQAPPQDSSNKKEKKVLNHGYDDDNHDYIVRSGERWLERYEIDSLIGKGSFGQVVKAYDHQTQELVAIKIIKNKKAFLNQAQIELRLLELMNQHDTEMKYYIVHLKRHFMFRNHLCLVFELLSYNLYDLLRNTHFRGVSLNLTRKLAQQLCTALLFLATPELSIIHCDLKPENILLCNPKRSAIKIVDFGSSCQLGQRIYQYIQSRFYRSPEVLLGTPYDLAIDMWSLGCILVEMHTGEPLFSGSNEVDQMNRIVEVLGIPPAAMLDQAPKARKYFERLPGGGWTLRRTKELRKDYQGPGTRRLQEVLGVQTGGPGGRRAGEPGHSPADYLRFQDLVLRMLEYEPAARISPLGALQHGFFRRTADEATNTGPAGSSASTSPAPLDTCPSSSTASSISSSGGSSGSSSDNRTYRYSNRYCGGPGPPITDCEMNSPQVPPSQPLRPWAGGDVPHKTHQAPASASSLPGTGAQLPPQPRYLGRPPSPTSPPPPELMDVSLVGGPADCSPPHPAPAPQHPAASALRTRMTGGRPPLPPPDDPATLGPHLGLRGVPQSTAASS
Method: [Inhibition Test on Activity of DYRK Family (DYRK1A, DYRK1B, DYRK2, and DYRK3)]
The kinase activity was measured by mobility shift assay (MSA) method using QuickScout Screening Assist™ MSA (commercially available kit manufactured by Carna Biosciences, Inc.). The substrate of the kinase reaction used was an FITC-labeled DYRKtide peptide included in the kit. An assay buffer [20 mM HEPES, 0.01% Triton X-100™, 2 mM dithiothreitol, pH 7.5]was used to create a substrate mixture solution with a substrate (4 μM), MgCl2(20 mM), and ATP (DYRK1A: 100 μM; DYRK1B: 200 μM; DYRK2: 40 μM; and DYRK3: 20 μM). In addition, kinases (DYRK1A: manufactured by Carna Biosciences, Inc., Cat. No. 04-130; DYRK1B: manufactured by Carna Biosciences, Inc., Cat. No. 04-131; DYRK2; manufactured by Carna Biosciences, Inc., Cat. No. 04-132; and DYRK3; manufactured by Carna Biosciences, Inc., Cat. No. 04-133) were diluted with the assay buffer to prepare enzyme solutions (DYRK1A: 0.2 ng/μL; DYRK1B: 0.08 ng/μL; DYRK2: 0.04 ng/μL; and DYRK3: 0.25 ng/μL). The 10 mM solution of the test compound in DMSO was further diluted with DMSO to 10 levels of the concentration (0.00003 mM, 0.0001 mM, 0.0003 mM, 0.001 mM, 0.003 mM, 0.01 mM, 0.03 mM, 0.1 mM, 0.3 mM, and 1 mM), each of which was subjected to 25-fold dilution with the assay buffer to obtain a drug solution (4% DMSO solution). 5 μL of the drug solution or a control solution (4% DMSO-assay buffer), 5 μL of the substrate mixture solution, and 10 μL of the enzyme solution were mixed in the wells of a polypropylene 384-well plate and allowed to react at room temperature for 1 hour, and then the reaction was quenched by adding 60 μL of the termination buffer included in the kit. Subsequently, the quantities of the substrates (S) and the phosphorylated substrate (P) in the reaction solution were measured using LabChip EZ Reader II system (manufactured by Caliper Life Sciences) according to the protocol of the assay kit.
The heights of the peaks of the “substrate” and the “phosphorylated substrate” were expressed as S and P, respectively, and a blank containing the assay buffer instead of the enzyme solution was also measured.
The inhibition rate (%) of the test compound was calculated according to the following equation:
Inhibition rate (%)=(1−(C−A)/(B−A))×100 • wherein, A, B, and C represent P/(P+S) of the blank well, P/(P+S) of the control solution well, and P/(P+S) of the compound-containing well, respectively.
The IC50 value was calculated via a regression analysis of the inhibition rate and the test compound concentration (logarithmic value).
The inhibiting activities of representative compounds of the present invention are shown against DYRK1A, DYRK1B, DYRK2, and DYRK3 in Tables.

[3] = molecular target: T3, DYRK2 (Homo sapiens, UniProt Q92630); test: Inhibition test on activity of DYRK family, mobility shift assay (MSA): DYRK2
T3 construct: purchased Carna Biosciences, Inc. 04-132
T3 sequence (Q92630 74-601 limits assumed): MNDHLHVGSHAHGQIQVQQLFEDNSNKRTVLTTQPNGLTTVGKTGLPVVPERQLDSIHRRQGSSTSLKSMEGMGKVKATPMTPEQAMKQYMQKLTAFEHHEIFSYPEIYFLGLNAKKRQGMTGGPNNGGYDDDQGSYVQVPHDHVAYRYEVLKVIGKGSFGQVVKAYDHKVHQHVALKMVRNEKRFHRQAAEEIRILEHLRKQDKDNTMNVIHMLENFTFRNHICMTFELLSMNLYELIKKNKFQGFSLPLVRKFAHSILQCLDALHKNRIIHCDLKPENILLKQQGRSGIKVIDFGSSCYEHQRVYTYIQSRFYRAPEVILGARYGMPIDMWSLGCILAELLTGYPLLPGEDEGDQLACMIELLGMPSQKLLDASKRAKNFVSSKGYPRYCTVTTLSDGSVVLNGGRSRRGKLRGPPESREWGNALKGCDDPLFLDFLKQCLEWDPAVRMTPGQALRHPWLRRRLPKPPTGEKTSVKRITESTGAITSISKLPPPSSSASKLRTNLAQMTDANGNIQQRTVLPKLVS
Procedure, shortened: (§1)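 Reactions ran 1 h at room temperature in HEPES buffer pH 7.5 with FITC-DYRKtide as substrate. ATP in the substrate mix was 100 µM for DYRK1A, 200 µM for DYRK1B, 40 µM for DYRK2 and 20 µM for DYRK3. Phosphorylated and unphosphorylated peptide were separated on a LabChip, and IC50 was regressed on log dose.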

[4] = molecular target: T4, DYRK3 (Homo sapiens, UniProt O43781); test: Inhibition test on activity of DYRK family, mobility shift assay (MSA): DYRK3
T4 construct: purchased Carna Biosciences, Inc. 04-133
T4 sequence (O43781 1-568 isoform O43781-2): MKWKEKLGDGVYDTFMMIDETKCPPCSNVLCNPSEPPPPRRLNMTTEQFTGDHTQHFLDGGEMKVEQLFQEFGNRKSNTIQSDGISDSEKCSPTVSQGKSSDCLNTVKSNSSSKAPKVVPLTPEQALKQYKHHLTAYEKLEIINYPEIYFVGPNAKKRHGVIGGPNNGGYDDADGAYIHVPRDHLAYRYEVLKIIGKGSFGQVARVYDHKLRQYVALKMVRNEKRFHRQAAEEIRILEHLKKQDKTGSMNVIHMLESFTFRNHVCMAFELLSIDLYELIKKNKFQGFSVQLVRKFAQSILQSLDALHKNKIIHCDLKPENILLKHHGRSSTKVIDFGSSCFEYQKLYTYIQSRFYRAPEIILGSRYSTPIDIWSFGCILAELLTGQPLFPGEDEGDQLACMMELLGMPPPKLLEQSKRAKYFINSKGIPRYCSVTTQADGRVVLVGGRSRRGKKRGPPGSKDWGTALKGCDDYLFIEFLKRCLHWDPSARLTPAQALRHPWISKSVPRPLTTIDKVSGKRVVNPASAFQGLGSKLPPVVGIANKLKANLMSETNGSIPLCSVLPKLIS
Procedure, shortened: as §1

[5] = MSA, FITC-labeled DYRKtide peptide, ATP 100 μM, read-out: Inhibitory activity DYRK 1A (IC50 class)
[6] = MSA, FITC-labeled DYRKtide peptide, ATP 200 μM, read-out: Inhibitory activity DYRK 1B (IC50 class)
[7] = MSA, FITC-labeled DYRKtide peptide, ATP 40 μM, read-out: Inhibitory activity DYRK 2 (IC50 class)
[8] = MSA, FITC-labeled DYRKtide peptide, ATP 20 μM, read-out: Inhibitory activity DYRK 3 (IC50 class)

SMILES	IC50 [1, 5]	IC50 [2, 6]	IC50 [3, 7]	IC50 [4, 8]	IC50 ([1]; read-out: Inhibitory activity DYRK 1A)	IC50 ([2]; read-out: Inhibitory activity DYRK 1B)	IC50 ([3]; read-out: Inhibitory activity DYRK 2)	IC50 ([4]; read-out: Inhibitory activity DYRK 3)
CN1CC[C@@H]2NC(=O)N(c3nc4c5c(ccc4s3)OCC5)[C@@H]2C1 (relative stereo) [Example 7, cis-3-(7,8-Dihydrofuro[3,2-e][1,3]benzothiazol-2-yl)-5-methyloctahydro-2H-imidazo[4,5-c]pyridin-2-one]	10 to 100 nM	10 to 100 nM	≥ 1000 nM	≥ 1000 nM	–	–	–	–
C[C@@H]1C[C@@H]2[C@H](CO1)NC(=O)N2c1nc2c3c(ccc2s1)OCC3 [Example 160]	100 to 1000 nM	100 to 1000 nM	≥ 1000 nM	≥ 1000 nM	–	–	–	–
CN1C[C@H]2NC(=O)N(c3nc4c5c(ccc4s3)OCC5)[C@H]2C1 (relative stereo) [Example 14, cis-1-(7,8-dihydrofuro[3,2-e][1,3]benzothiazol-2-yl)-5-methylhexahydropyrrolo[3,4-d]imidazol-2(1H)-one]	10 to 100 nM	10 to 100 nM	100 to 1000 nM	10 to 100 nM	–	–	–	–
O=C1N[C@H]2COC[C@H]2N1c1nc2c3c(ccc2s1)OCC3 [Example 119]	–	–	–	–	10 to 100 nM	10 to 100 nM	10 to 100 nM	10 to 100 nM
C[C@H]1OC[C@@H]2NC(=O)N(c3nc4c5c(ccc4s3)OCC5)[C@@H]21 [Example 161, (3aR,6R,6aS)-1-(7,8-Dihydrofuro[3,2-e][1,3]benzothiazol-2-yl)-6-methyltetrahydro-1H-furo[3,4-d]imidazol-2(3H)-one]	10 to 100 nM	10 to 100 nM	10 to 100 nM	100 to 1000 nM	–	–	–	–
O=C1N[C@@H]2[C@@H](CO)OC[C@@H]2N1c1nc2c3c(ccc2s1)OCC3 [Example 158]	100 to 1000 nM	100 to 1000 nM	≥ 1000 nM	≥ 1000 nM	–	–	–	–

Next, values leading:

IC50 [1, 5]	IC50 [2, 6]	IC50 [3, 7]	IC50 [4, 8]	IC50 ([1]; read-out: Inhibitory activity DYRK 1A)	IC50 ([2]; read-out: Inhibitory activity DYRK 1B)	IC50 ([3]; read-out: Inhibitory activity DYRK 2)	IC50 ([4]; read-out: Inhibitory activity DYRK 3)	SMILES
10 to 100 nM	10 to 100 nM	≥ 1000 nM	≥ 1000 nM	–	–	–	–	CCN1CC[C@H]2NC(=O)N(c3nc4c5c(ccc4s3)OCC5)[C@H]2C1 (relative stereo) [Example 11, cis-3-(7,8-dihydrofuro[3,2-e][1,3]benzothiazol-2-yl)-5-ethyloctahydro-2H-imidazo[4,5-c]pyridin-2-one]
< 10 nM	< 10 nM	≥ 1000 nM	≥ 1000 nM	–	–	–	–	O=C1N[C@H]2CCN(C3CC3)C[C@H]2N1c1nc2c3c(ccc2s1)OCO3 (single isomer, unassigned) [Example 36]
< 10 nM	< 10 nM	100 to 1000 nM	100 to 1000 nM	–	–	–	–	C[C@H]1C[C@@H]2[C@H](CO1)NC(=O)N2c1nc2c3c(ccc2s1)OCC3 [Example 38, (3aR,6S,7aR)-1-(7,8-dihydrofuro[3,2-e][1,3]benzothiazol-2-yl)-6-methylhexahydropyrano[3,4-d]imidazol-2(3H)-one]
< 10 nM	< 10 nM	100 to 1000 nM	10 to 100 nM	–	–	–	–	C[C@H]1C[C@@H]2[C@H](CO1)NC(=O)N2c1nc2c3c(ccc2s1)OCO3 [Example 139, (3aR,6S,7aR)-1-(2H-[1,3]dioxolo[4,5-e][1,3]benzothiazol-7-yl]-6-methylhexahydropyrano[3,4-d]imidazol-2(3H)-one]
< 10 nM	< 10 nM	100 to 1000 nM	100 to 1000 nM	–	–	–	–	CC[C@H]1C[C@@H]2[C@H](CO1)NC(=O)N2c1nc2c3c(ccc2s1)OCO3 [Example 138, (3aR,6S,7aR)-1-(2H-[1,3]dioxolo[4,5-e][1,3]benzothiazol-7-yl)-6-ethylhexahydropyrano[3,4-d]imidazol-2(3H)-one]
< 10 nM	< 10 nM	100 to 1000 nM	100 to 1000 nM	–	–	–	–	C[C@@H]1NC(=O)N(c2nc3c4c(ccc3s2)OCC4)[C@@H]1CN1CCOCC1 [Example 23, (4S,5R)-1-(7,8-dihydrofuro[3,2-e][1,3]benzothiazol-2-yl)-4-methyl-5-[(morpholin-4-yl)methyl]imidazolidin-2-one]
